Source: ChEMBL document CHEMBL6153169, “Menominin A and B: Cytotoxic Cyclodepsipeptides from the Freshwater Sponge-Associated Cyanobacterium Nostoc sp. UIC 10607” (J Nat Prod, 2025)

Experiments:
MDA-MB-435 = experiment: Cytotoxicity against human MDA-MB-435 cells assessed as inhibition of cell growth incubated for 72 hrs by CellTiter 96 Aqueous One Solution based assay; format: functional; conditions: MDA-MB-435, 72 h
OVCAR-3 = experiment: Cytotoxicity against human OVCAR-3 cells assessed as inhibition of cell growth incubated for 72 hrs by CellTiter 96 Aqueous One Solution based assay; format: functional; conditions: OVCAR-3, 72 h

How did the IC50 (MDA-MB-435) turn out when `CCCCCC[C@@H]1CCCC[C@@H](O)[C@H](C)C(=O)O[C@@H]([C@H](C)CC)C(=O)N[C@@H](Cc2ccccc2)C(=O)O1` was run?
Its IC50 is 5200 nM.

What about the IC50 (OVCAR-3) of the same molecule?
The IC50 was 3100 nM.

Which IC50 (MDA-MB-435) does the source give for `CCCCCC[C@@H]1CCCC[C@@H](O)[C@H](C)C(=O)O[C@@H](C(C)C)C(=O)N[C@@H](Cc2ccccc2)C(=O)O1` here?
Its IC50 is 2900 nM.

What about the IC50 (OVCAR-3) of the same molecule?
Its IC50 is 2400 nM.

Which IC50 (MDA-MB-435) does the source give for `CC(=O)O[C@H]1C(=O)[C@@]2(C)[C@H]([C@H](OC(=O)c3ccccc3)[C@]3(O)C[C@H](OC(=O)[C@H](O)[C@@H](NC(=O)c4ccccc4)c4ccccc4)C(C)=C1C3(C)C)[C@]1(OC(C)=O)CO[C@@H]1C[C@@H]2O` [PACLITAXEL] here?
Its IC50 is 0.52 nM.

And the IC50 (OVCAR-3)?
The IC50 was 2.2 nM.
